The results in this text go back to US7718645B2, “Substituted bicyclolactam compounds” (Pfizer Inc., priority 2007, dated 2010).

The term IC50 denotes the midpoint of a concentration-inhibition curve.

Where two headings read alike, the source gives them in different places.

The test addresses T1, Human full-length diacylglycerol:acylCoA acyltransferase 1 (DGAT-1) (Homo sapiens, UniProt O75907).
T1 construct: Human full-length diacylglycerol:acylCoA acyltransferase 1 (DGAT-1) was expressed in Sf9 insect cells; made in house; host or cells: Sf9 insect cells (baculovirus)
T1 sequence (O75907 1-488): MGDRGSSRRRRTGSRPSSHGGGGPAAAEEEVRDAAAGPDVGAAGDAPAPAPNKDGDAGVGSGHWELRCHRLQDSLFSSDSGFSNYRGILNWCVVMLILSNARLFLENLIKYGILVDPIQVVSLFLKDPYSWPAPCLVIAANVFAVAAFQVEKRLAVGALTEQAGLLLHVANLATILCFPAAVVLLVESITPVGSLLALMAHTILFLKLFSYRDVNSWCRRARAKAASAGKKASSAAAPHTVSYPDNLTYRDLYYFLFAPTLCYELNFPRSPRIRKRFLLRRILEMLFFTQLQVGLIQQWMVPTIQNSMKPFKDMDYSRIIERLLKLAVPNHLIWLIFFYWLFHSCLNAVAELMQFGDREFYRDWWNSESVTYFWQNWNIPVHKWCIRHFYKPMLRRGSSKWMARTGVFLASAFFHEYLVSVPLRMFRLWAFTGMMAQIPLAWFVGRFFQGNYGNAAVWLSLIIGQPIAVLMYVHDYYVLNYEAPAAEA
Put plainly: In vitro assay for DGAT-1 inhibition ([14C]decanoylCoA, Sf9 membrane fraction). The class given is biochemical. The procedure:
Human full-length diacylglycerol:acylCoA acyltransferase 1 (DGAT-1) was expressed in Sf9 insect cells which are then lysed and a crude membrane fraction (105,000×g pellet) was prepared.
The cells were cultured as follows. Sf9 cells (20 L) were infected with 4 mL of DGAT1 Baculovirus Infected Insect Cells (BIIC) for 72 hours in a Wave Bioreactor System 20/50P (Wave Biotec/GE Healthcare).
Crude DGAT-1 microsomes were prepared as follows. Cell pellets were washed once with ice-cold Dulbecco's phosphate-buffered saline. Cells were collected in tabletop centrifuge (Beckman GS-6KR), 15 minutes, 2000×g, 4° C. Twenty (20) mL of ice-cold Microsome Buffer (MB) was added per 5 g of cell pellet. The suspension was passed through a microfluidizer 3 times (18K psi). The lysate was transferred to centrifuge tubes and centrifuged for 20 minutes at 5000×g (Beckman-Coulter, Inc. Allegra® 64R High-Speed Refrigerated Benchtop Centrifuge, F0650 rotor) at 4° C. The supernatant was transferred to Ultracentrifuge tubes and centrifuged at […] for 1 hr in a Beckman Ti-45 rotor, 4° C. The supernatant fluid was discarded. The pellet was resuspended in 70 mL of MB by sonication. The microsome concentration was determined using Bio-Rad Protein DC Protein Assay. The microsomes were filter sterilized with a 0.22 μm filter. The samples were portioned, flash frozen and stored at −80° C.
Inhibitors in DMSO were pre-incubated with membranes before initiating the DGAT-1 reaction by the addition of decanoylCoA. […] The inhibitors were present at a range of eight concentrations to generate an apparent IC50 for each compound. […] Specifically, the eight concentrations used were 10 μM, 3 μM, 1 μM, 300 nM, 100 nM, 30 nM, 10 nM and 3 nM.
The reactions were allowed to proceed for 1.5 h at room temperature and then terminated by the addition of 10 μl of HCl (0.5 M). Reaction mixtures were neutralized by the addition of 15 μl of tris(hydroxy-methyl)aminomethane (1M, pH 8.0) and then mixed by trituration with 37.5 μl of Microscint™-E (Perkin Elmer).
Where this DGAT-1 inhibition assay was performed on a compound more than once, an inhibition range is also provided for that compound.

Setting [1] is: Examples 17-23 table, range of repeated assays, read-out: DGAT-1 IC50 Range.
Where [2] appears, read: Examples 17-23 table, read-out: DGAT-1 IC50.
[3] abbreviates: apparent IC50, eight inhibitor concentrations 10 μM to 3 nM, read-out: IC50.
Setting [4] is: inhibition range where the assay was performed on a compound more than once, read-out: IC50 range.
Setting [5] is: Examples 24-25 table, range of repeated assays, read-out: DGAT-1 IC50 Range.
Setting [6] is: Examples 24-25 table, read-out: DGAT-1 IC50.

As for `Nc1ncnc2c1C(=O)N(c1ccc(C3CCC(CC(=O)O)CC3)c(F)c1)CCO2` (stereo not drawn) [Example 19, 2-(4-(4-(4-amino-5-oxo-7,8-dihydropyrimido[5,4-f][1,4]oxazepin-6(5H)-yl)-2-fluorophenyl)cyclohexyl)acetic acid], the IC50 runs as follows: under setting [1], 3 to 15.5 nM; under setting [2], below 8.26 nM.
Take `COC(=O)CC1CC=C(c2ccc(N3CCOc4ncnc(N)c4C3=O)cc2)CC1` (racemic) [Example 52, Methyl(+)-{4-[4-(4-Amino-5-oxo-7,8-dihydropyrimido[5,4-f][1,4]oxazepin-6(5H)-yl)phenyl]cyclohex-3-en-1-yl}acetate]: the half-maximal inhibitory concentration (IC50) under setting [3] worked out at 84.3 nM.
For the molecule `Cc1cc(N2CCOc3ncnc(N)c3C2=O)ccc1C1CCC(CC(=O)O)CC1` (stereo not drawn) [Example 20, 2-(4-(4-(4-amino-5-oxo-7,8-dihydropyrimido[5,4-f][1,4]oxazepin-6(5H)-yl)-2-methylphenyl)cyclohexyl)acetic acid], the IC50 under setting [1] lay in the range of 8.6 to 17.2 nM and the IC50 under setting [2] stood at 13 nM.
The corresponding values for `C[C@@H]1CN(c2ccc(C3CCC(CC(=O)O)CC3)cc2F)C(=O)c2c(N)ncnc2O1` (stereo partly drawn) [Example 22, (R)-2-(4-(4-(4-amino-8-methyl-5-oxo-7,8-dihydropyrimido[5,4-f][1,4]oxazepin-6(5H)-yl)-3-fluorophenyl)cyclohexyl)acetic acid] are 27.9 to 34.5 nM and 30 nM.
Turning to `C[C@@H]1CN(c2ccc(C3CCC(CC(N)=O)CC3)c(F)c2)C(=O)c2c(N)ncnc2O1` (stereo partly drawn) [Example 28, (R)-2-(4-(4-(4-amino-8-methyl-5-oxo-7,8-dihydropyrimido[5,4-f][1,4]oxazepin-6(5H)-yl)-2-fluorophenyl)cyclohexyl)acetamide], the half-inhibitory concentration (IC50) under setting [3] came out at 11.3 nM and the IC50 under setting [4] lay within 7.3 to 19.9 nM.
Turning to `C[C@@H]1CN(c2ccc([C@H]3CC[C@H](CC(=O)O)CC3)c(F)c2)C(=O)c2c(N)ncnc2O1` [Example 25, (trans-4-{4-[(8R)-4-amino-8-methyl-5-oxo-7,8-dihydropyrimido[5,4-f][1,4]oxazepin-6(5H)-yl]-2-fluorophenyl}cyclohexyl)acetic acid], the IC50 runs as follows: under setting [5], 10 to 17 nM; under setting [6], 12.3 nM.
Regarding `COC(=O)Cc1ccc(Oc2ccc(N3CCOc4ncnc(N)c4C3=O)cc2)cc1` [Example 54, Methyl {4-[4-(4-amino-5-oxo-7,8-dihydropyrimido[5,4-f][1,4]oxazepin-6(5H)-yl)phenoxy]phenyl}acetate], the half-inhibitory concentration (IC50) under setting [3] amounted to 254 nM.
On to `Nc1ncnc2c1C(=O)N(c1ccc(C3=CCC(CC(=O)O)CC3)cc1)CCO2` (single isomer, unassigned; (+)) [Example 53, (+)-{4-[4-(4-Amino-5-oxo-7,8-dihydropyrimido[5,4-f][1,4]oxazepin-6(5H)-yl)phenyl]cyclohex-3-en-1-yl}acetic Acid], for which the half-inhibitory concentration (IC50) is, setting by setting: under setting [3], 36.4 nM; under setting [4], 33.8 to 39.3 nM.
In the same order, the values of `CC1COc2ncnc(N)c2C(=O)N1c1ccc(C2CCC(CC(=O)O)CC2)cc1` (stereo not drawn) [Example 15, {4-[4-(4-Amino-7-methyl-5-oxo-7,8-dihydro-5H-9-oxa-1,3,6-triaza-benzocyclohepten-6-yl)-phenyl]-cyclohexyl}-acetic acid] are 27.3 nM and 13.6 to 77.9 nM.
For `CCOC(=O)C[C@H]1CC[C@H](c2ccc(N3CC(C)(C)Oc4ncnc(N)c4C3=O)cc2)CC1` [Example 7, ethyl {trans-4-[4-(4-amino-8,8-dimethyl-5-oxo-7,8-dihydropyrimido[5,4-f][1,4]oxazepin-6(5H)-yl)phenyl]cyclohexyl}acetate], the IC50 under setting [3] stood at 183 nM.
On to `C[C@@H]1CN(c2ccc([C@H]3CC[C@@H](CC(=O)O)CC3)c(F)c2)C(=O)c2c(N)ncnc2O1` [Example 24, (cis-4-{4-[(8R)-4-amino-8-methyl-5-oxo-7,8-dihydropyrimido[5,4-f][1,4]oxazepin-6(5H)-yl]-2-fluorophenyl}cyclohexyl)acetic acid], for which the concentration for half-maximal inhibition (IC50) was 1.7 to 13.2 nM under setting [5] and 4.6 nM under setting [6].
Consider `COC(=O)C[C@H]1CC[C@H](c2ccc(N3CCOc4nc(C)nc(N)c4C3=O)cc2)CC1` [Example 9, methyl {trans-4-[4-(4-amino-2-methyl-5-oxo-7,8-dihydropyrimido[5,4-f][1,4]oxazepin-6(5H)-yl)phenyl]cyclohexyl}acetate], for which the half-maximal inhibitory concentration (IC50) under setting [3] was 239 nM.
As for `Nc1ncnc2c1C(=O)N(c1ccc(C3CCC(CC(=O)O)CC3)c(Cl)c1)CCO2` (stereo not drawn) [Example 18, 2-(4-(4-(4-amino-5-oxo-7,8-dihydropyrimido[5,4-f][1,4]oxazepin-6(5H)-yl)-2-chlorophenyl)cyclohexyl)acetic acid], the concentration for half-maximal inhibition (IC50) under setting [1] fell in the range of 4.4 to 6.9 nM and the IC50 under setting [2] amounted to 5.82 nM.
On to `Nc1ncnc2c1C(=O)N(c1ccc([C@@H]3CC[C@@H]4[C@@H](CC(=O)O)CC[C@@H]43)cc1)CCO2` (racemic) [Example 55, ±{(1R,3aS,4R,6aR)4-[4-(4-Amino-5-oxo-7,8-dihydropyrimido[5,4-f][1,4]oxazepin-6(5H)-yl)phenyl]octahydropentalen-1-yl}acetic Acid], for which the concentration for half-maximal inhibition (IC50) is, setting by setting: under setting [3], below 10 nM; under setting [4], 3 to 27.2 nM.
In the same order, the values of `CCC1CN(c2ccc(C3CCC(CC(=O)O)CC3)cc2)C(=O)c2c(N)ncnc2O1` (stereo not drawn) [Example 13, {4-[4-(4-Amino-8-ethyl-5-oxo-7,8-dihydro-5H-9-oxa-1,3,6-triaza-benzocyclohepten-6-yl)-phenyl]-cyclohexyl}-acetic acid] are 1330 nM and 1070 to 1660 nM.
As for `C[C@@H]1CN(c2ccc([C@H]3CC[C@H](CC#N)CC3)cc2)C(=O)c2c(N)ncnc2O1` [Example 47, (Trans-4-{4-[(8R)-4-amino-8-methyl-5-oxo-7,8-dihydropyrimido[5,4-f][1,4]oxazepin-6(5H)-yl]phenyl}cyclohexyl)acetonitrile], the IC50 was 38.4 nM under setting [3] and 30.1 to 48.1 nM under setting [4].
As for `COC(=O)C1CCC(c2ccc(N3CCOc4ncnc(N)c4C3=O)cc2)CC1` (stereo not drawn) [Example 50, 4-[4-(4-Amino-5-oxo-7,8-dihydro-5H-9-oxa-1,3,6-triaza-benzocyclohepten-6-yl)-phenyl]-cyclohexanecarboxylic Acid Methyl Ester], the half-maximal inhibitory concentration (IC50) under setting [3] came out at 47.3 nM and the IC50 under setting [4] fell in the range of 45.2 to 49.5 nM.
For the molecule `C[C@H]1COc2ncnc(N)c2C(=O)N1c1ccc([C@H]2CC[C@H](CC(=O)O)CC2)cc1` [Example 5], under setting [3], the IC50 is 33.9 nM.
For the molecule `COC(=O)C1C2C1[C@H]1C[C@@H]2C[C@@H]1c1ccc(N2CCOc3ncnc(N)c3C2=O)cc1` (stereo partly drawn) [Example 56, (1R,5R,6S)-6-[4-(4-Amino-5-oxo-7,8-dihydro-5H-9-oxa-1,3,6-triaza-benzocyclohepten-6-yl)-phenyl]-tricyclo[3.2.1.0*2,4*]octane-3-carboxylic Acid Methyl Ester], the IC50 under setting [3] was 78.3 nM.
In the case of `C[C@@H]1CN(c2ccc(C3CCC(CC#N)CC3)c(F)c2)C(=O)c2c(N)ncnc2O1` (stereo partly drawn) [Example 48, (R)-2-(4-(4-(4-amino-8-methyl-5-oxo-7,8-dihydropyrimido[5,4-f][1,4]oxazepin-6(5H)-yl)-2-fluorophenyl)cyclohexyl)acetonitrile], the half-maximal inhibitory concentration (IC50) under setting [3] came to 12.9 nM and the half-inhibitory concentration (IC50) under setting [4] was in the range of 4.5 to 22.2 nM.
As for `C[C@@H]1CN(c2ccc(C3CCC(CC(=O)O)CC3)c(F)c2)C(=O)c2c(N)ncnc2O1` (stereo partly drawn) [Example 17, (R)-2-(4-(4-(4-amino-8-methyl-5-oxo-7,8-dihydropyrimido[5,4-f][1,4]oxazepin-6(5H)-yl)-2-fluorophenyl)cyclohexyl)acetic acid], the half-inhibitory concentration (IC50) reads like this: under setting [1], 3 to 15.5 nM; under setting [2], below 6.21 nM.
